# Measurements: patent publication US11896580B2, “Composition for improving milk quality and preparation method and application thereof” (CHINA AGRICULTURAL UNIVERSITY, priority 2020, dated 2024)
# Experiments:
# cows = test: Blood indicators of cows after injection of melatonin; conditions: in vivo
# [1] = tested on: Holstein cows having somatic cell counts of 300,000/mL to 1,000,000/mL; test: Analysis of the DHI indicators of milk after subcutaneous injection of melatonin; format: in vivo
# Source text: (1) According to the monthly DHI test reports from the dairy farm, Holstein cows having somatic cell counts of 300,000/mL to 1,000,000/mL are selected to be fed separately, and are ensured to have no significant difference in physical health. Season groups: spring n=90, summer n=74, autumn n=83, winter n=81 (number of cows). Age groups: 2-year-old n=23; 3-year-old n=80; 4-year-old n=66; 5-year-old n=56; 6-year-old n=27; 7-year-old n=19 (number of cows). Lactation period groups: peak-lactation n=15, mid-lactation n=38, end-lactation n=59 (number of cows) (initial-lactation: days 1-15 after calving; peak-lactation: days 16-100 after calving; mid-lactation: days 101-200 after calving; end-lactation: day 201 after calving to weaning).
# (2) The dairy cows having high somatic cell counts are injected with 2 mL melatonin solution every day for 4 consecutive days in each month. 15 days after the injection, fresh milk was collected and stored in 50 mL centrifuge tubes, and was tested for the changes in somatic cell counts. The cows were fed with total mixed ration, and were fed three times at 06:00, 12:00, and 18:00 respectively. Then, the cows entered the sports ground to move freely, drink water and rest.
# (3) The sampling bottles were numbered and added with 2-3 drops of potassium dichromate saturated solution, and were used for collecting the milk samples from the milk by the first milking of the cows. The milk sample for each cow was in a volume of 40 mL and placed in a centrifuge tube. After sampling, all the remaining milk was drained from the tubes which were cleaned to avoid contamination between the samples. The samples were stored at 2-7° C. The instrument for measuring the DHI indicators is Milkscan FT+&FC automatic milk compositional analyzer and somatic cell counter. The measurement was carried out in the National Laboratory for Preparation of Standard Materials of DHI.
# [2] = 2-year-old cows, after injection
# [3] = 3-year-old cows, after injection
# [4] = 4-year-old cows, after injection
# [5] = 5-year-old cows, after injection
# [6] = 6-year-old cows, after injection
# [7] = 7-year-old cows, after injection
# [8] = peak-lactation, after injection
smiles,measurement,setting,value
COc1ccc2[nH]cc(CCNC(C)=O)c2c1 [melatonin],concentration of alanine aminotransferase,cows,increase
same,concentration of albumin,cows,increase
same,concentration of cortisol,cows,reduce
same,concentration of serum lactate dehydrogenase,cows,increase
same,number of lymphocytes,cows,reduce
same,number of neutrophils,cows,reduce
same,number of white blood cells,cows,reduce
same,dry matter contents,[1]; [2],13.87%±0.27
same,fat contents,[1]; [2],4.54%±0.26
same,lactose contents,[1]; [2],5.19%±0.03
same,milk production,[1]; [2],32.12 ± 1.63 kg/day
same,protein contents,[1]; [2],3.41%±0.09
same,somatic cell scores,[1]; [2],3.87±0.33
same,urea nitrogen contents,[1]; [2],13.90 ± 0.80 mg/dL
same,dry matter contents,[1]; [3],13.57%±0.13
same,fat contents,[1]; [3],4.36%±0.11
same,lactose contents,[1]; [3],5.03%±0.02
same,milk production,[1]; [3],32.11 ± 0.96 kg/day
same,protein contents,[1]; [3],3.44%±0.04
same,somatic cell scores,[1]; [3],4.31±0.18
same,urea nitrogen contents,[1]; [3],13.58 ± 0.46 mg/dL
same,dry matter contents,[1]; [4],14.18%±0.15
same,fat contents,[1]; [4],4.69%±0.13
same,lactose contents,[1]; [4],4.94%±0.03
same,milk production,[1]; [4],30.03 ± 1.22 kg/day
same,protein contents,[1]; [4],3.66%±0.06
same,somatic cell scores,[1]; [4],4.68±0.18
same,urea nitrogen contents,[1]; [4],13.32 ± 0.49 mg/dL
same,dry matter contents,[1]; [5],13.87%±0.18
same,fat contents,[1]; [5],4.62%±0.16
same,lactose contents,[1]; [5],4.86%±0.05
same,milk production,[1]; [5],33.56 ± 1.52 kg/day
same,protein contents,[1]; [5],3.55%±0.07
same,somatic cell scores,[1]; [5],4.04±0.19
same,urea nitrogen contents,[1]; [5],14.09 ± 0.59 mg/dL
same,dry matter contents,[1]; [6],14.13%±0.24
same,fat contents,[1]; [6],5.27%±0.21
same,lactose contents,[1]; [6],4.91%±0.06
same,milk production,[1]; [6],35.19 ± 2.67 kg/day
same,protein contents,[1]; [6],3.38%±0.07
same,somatic cell scores,[1]; [6],5.19±0.27
same,urea nitrogen contents,[1]; [6],15.79 ± 0.94 mg/dL
same,dry matter contents,[1]; [7],13.48%±0.32
same,fat contents,[1]; [7],4.66%±0.37
same,lactose contents,[1]; [7],4.93%±0.06
same,milk production,[1]; [7],30.34 ± 2.08 kg/day
same,protein contents,[1]; [7],3.32%±0.07
same,somatic cell scores,[1]; [7],5.03±0.29
same,urea nitrogen contents,[1]; [7],15.11 ± 1.34 mg/dL
same,dry matter contents,"[1]; autumn, after injection",14.10%±0.14
same,fat contents,"[1]; autumn, after injection",4.68%±0.13
same,lactose contents,"[1]; autumn, after injection",5.07%±0.04
same,milk production,"[1]; autumn, after injection",32.07 ± 1.05 kg/day
same,protein contents,"[1]; autumn, after injection",3.64%±0.05
same,urea nitrogen contents,"[1]; autumn, after injection",11.72 ± 0.36 mg/dL
same,somatic cell scores,"[1]; autumn, after injection (second value of before VS after)",4.55±0.16
same,dry matter contents,"[1]; end-lactation, after injection",13.47%±0.13
same,fat contents,"[1]; end-lactation, after injection",4.18%±0.12
same,milk production,"[1]; end-lactation, after injection",31.25 ± 1.29 kg/day
same,protein contents,"[1]; end-lactation, after injection",3.40%±0.04
same,somatic cell scores,"[1]; end-lactation, after injection",1.99±0.15
same,urea nitrogen contents,"[1]; end-lactation, after injection",12.04 ± 0.38 mg/dL
same,dry matter contents,"[1]; mid-lactation, after injection",13.56%±0.14
same,fat contents,"[1]; mid-lactation, after injection",4.22%±0.11
same,lactose contents,"[1]; mid-lactation, after injection",5.19%±0.02
same,milk production,"[1]; mid-lactation, after injection",39.08 ± 1.79 kg/day
same,protein contents,"[1]; mid-lactation, after injection",3.45%±0.05
same,somatic cell scores,"[1]; mid-lactation, after injection",2.00±0.17
same,urea nitrogen contents,"[1]; mid-lactation, after injection",12.11 ± 0.54 mg/dL
same,dry matter contents,[1]; [8],13.17%±0.29
same,fat contents,[1]; [8],3.87%±0.26
same,milk production,[1]; [8],38.80 ± 2.06 kg/day
same,protein contents,[1]; [8],3.35%±0.06
same,somatic cell scores,[1]; [8],2.04±0.24
same,urea nitrogen contents,[1]; [8],11.12 ± 0.64 mg/dL
same,dry matter contents,"[1]; spring, after injection",13.92%±0.15
same,fat contents,"[1]; spring, after injection",4.78%±0.14
same,lactose contents,"[1]; spring, after injection",4.94%±0.02
same,milk production,"[1]; spring, after injection",32.11 ± 1.15 kg/day
same,protein contents,"[1]; spring, after injection",3.49%±0.04
same,urea nitrogen contents,"[1]; spring, after injection",14.35 ± 0.45 mg/dL
same,somatic cell scores,"[1]; spring, after injection (second value of before VS after), 2 mL/day s.c., 4 days, milk 15 days after",4.89±0.15
same,dry matter contents,"[1]; summer, after injection",13.42%±0.13
same,fat contents,"[1]; summer, after injection",4.20%±0.12
same,lactose contents,"[1]; summer, after injection",5.06%±0.02
same,milk production,"[1]; summer, after injection",32.69 ± 1.00 kg/day
same,protein contents,"[1]; summer, after injection",3.45%±0.04
same,urea nitrogen contents,"[1]; summer, after injection",14.19 ± 0.50 mg/dL
same,somatic cell scores,"[1]; summer, after injection (second value of before VS after)",4.09±0.20
same,somatic cell score reduced by,"[1]; whole year, n=328, p<0.01",63.54%
same,fat content of milk reduced by,"[1]; whole year, n=328, p<0.05",11.31%
same,lactose content increased to,"[1]; whole year, n=328, p<0.05",4.74%
same,protein content of milk increased by,"[1]; whole year, n=328, p<0.05",3.79%
same,urea nitrogen content of milk reduced by,"[1]; whole year, n=328, p<0.05",11.08%
same,dry matter contents,"[1]; winter, after injection",13.65%±0.12
same,fat contents,"[1]; winter, after injection",4.75%±0.11
same,lactose contents,"[1]; winter, after injection",4.84%±0.04
same,milk production,"[1]; winter, after injection",31.82 ± 1.17 kg/day
same,protein contents,"[1]; winter, after injection",3.43%±0.05
same,urea nitrogen contents,"[1]; winter, after injection",15.94 ± 0.51 mg/dL
same,somatic cell scores,"[1]; winter, after injection (second value of before VS after)",4.34±0.17
